The source of these data is ChEMBL document CHEMBL1149041, “Polypropionates from the Mediterranean Mollusk Elysia timida” (J Nat Prod, 1994).

This data set concerns Gambusia affinis. The data set can be described thus: Ichthyotoxicity against Gambusia affinis at 5 ppm. Format: organism-based. The following applies: in vivo.
On to `CC/C=C(\C)[C@H]1C(C)=CC(C)=C[C@]1(C)c1oc(OC)c(C)c(=O)c1C`, for which the result was Active.

Consider `C/C=C(\C)[C@H]1C(C)=C[C@@]2(C)[C@@H]1[C@]2(C)c1oc(OC)c(C)c(=O)c1C`, for which the result was Active.

In the case of `CC/C=C(\C)[C@H]1C(C)=C[C@@]2(C)[C@@H]1[C@]2(C)c1oc(OC)c(C)c(=O)c1C` [PHOTODEOXYTRIDACHIONE], the outcome was Active.
